The experiment is described as follows: Odor detection threshold (ODT). Also noted: unit not given here. The source says:
Within these defined water-release groups, odorants are then further described based on their experimentally determined odor detection thresholds (ODT) to further characterize the odor impact or olfactive intensity of a citrus and other olfactive types within the herein-described released group of odorants.
Upon their release in headspace, odorants are detected based on their odor detection threshold values. Odor detection thresholds are defined as the lowest concentration of odorants in a selected medium (air or water) to be detected. By including odor values of odorants in the model, one can further improve on the values for predicted performance of once odorants are released from the partition into the air.
Various databases for experimental odor detection threshold values in various partitions such as water and air are available. See Compilation of Odor and Taste Threshold Values Data, American Society for Testing and Materials, F. A. Fazzalari Editor; Booleans Aroma Chemical Information Service (BACIS)).

Under “Table 17”, `C=CC(C)(O)CCC=C(C)CC` (mixture of isomers) [ETHYL LINALOOL] came in with an odt of 120.
In the case of `CCCCCCCCCCC=CC#N` [TRIDECEN 2 NITRILE], for the setting “Table 15”, the odt was determined as 6.7.
On the same count and under the same terms, the result for `CCCCCCCCCC=O` [ALDEHYDE C10 (DECANAL), DECANAL] reads 6.7.
Regarding `CC/C=C\CCOC(=O)c1ccccc1O` [CIS-3-HEXENYL SALICYLATE], for the setting “Table 13”, the odt was determined as 1.90.
Turning to `CCC=C(C)C(O)CCCCC` (centres unmarked) [UNDECAVERTOL, 4-Methyl-3-decen-5-ol], the odt (Table 15) stood at 26 and the odt (Table 17) worked out at 26.
As to `C=CCOC(=O)CCC1CCCCC1` [ALLYL CYCLOHEXYL PROPIONATE], the odt (Table 13) is given as 31.00.
The same measure, in the same setting: in the case of `CCCCCCCCCCCC#N` [LAURONITRILE] it was 5.70.
`CCCCCCC#CC(=O)OC` [METHYL OCTINE CARBONATE] displayed an odt (Table 17) of 9.7.
For `CCCCCCCC=O` [ALDEHYDE C 8 (OCTANAL), OCTANAL], the odt was 4.6 (Table 15) and 4.6 (Table 17).

The record behind these values is patent US20080176781A1, “Perfumes for linear citrus release in rinse-off systems” (priority 2007, published 2008).
